Experimental data as given in patent publication US11931330B2, “Composition for promoting skeletal muscle activity via induction of mitochondrial biogenesis comprising of azelaic acid as an active ingredient” (Korea University Research and Business Foundation, priority 2018, dated 2024).

Columns and labels:
Hepa1c1c-7 cells = assay: MTT assay, cytotoxicity of azelaic acid; type: cell-based; conditions: 0 to 500 μM, 24 hours, compared to the control group
Procedure: To evaluate cytotoxicity of an azelaic acid, an MTT assay was performed. The MTT assay is a test method utilizing the ability of mitochondria to reduce MTT tetrazolium, which is a yellow water-soluble substrate, to non-water-soluble MTT formazan showing a blue-violet color by a dehydrogenase. The MTT reagent was prepared by being diluted in phosphate buffered saline (PBS) at a concentration of 2 to 5 mg/mL. Hepalcic-7 cells used in this experiment were purchased from the Korean Cell Line Bank, and cultured in a minimum essential medium Eagle alpha modification medium (MEM-alpha, Hyclone) supplemented with 10% FBS and 1% PEST. For this experiment, the Hepa1c1c-7 cells (4×10^4 cell/mL) were seeded into a 96-well plate and incubated at 37° C. under 5% CO2 for 24 hours, and then incubated for 24 hours by adding an azelaic acid in a concentration range of 0 to 500 μM. Afterward, each sample was treated with 100 μL of the MTT reagent (4 mg/mL), incubated at 37° C. under 5% CO2 for 4 hours and treated with 100 μL of dimethyl sulfoxide (DMSO), followed by measuring absorbance at 540 nm. Since the absorbance level is proportional to a cell count, a cell death effect caused by toxicity may be quantified.

muscle tissue of mice = assay: Intraperitoneal injection to normal and Olfr544 knockout mice, muscle tissue protein expression; type: in vivo, mouse; conditions: intraperitoneal 100 mg/kg; for pERK/ERK protein expression increase in muscle: compared with control
Excerpt: FIG. 7A to FIG. 7E are diagrams showing mechanisms of promoting mitochondrial biogenesis according to Olfr544 activity of an azelaic acid in mice (FIG. 7A: the images showing pCREB, CREB, PGC-1α, ERK1/2, pERK1/2 and LC3 proteins expression, FIG. 7B: analysis for pCREB and CREB protein expression levels, FIG. 7C: analysis for PGC-1α protein expression per an azelaic acid treatment time, FIG. 7D: analysis for pERK and ERK protein expression levels, and FIG. 7E: analysis for LC3 protein expression per an azelaic acid treatment time in muscle tissue extracted 30 and 120 minutes after an azelaic acid is intraperitoneally injected into normal mice and Olfr544 KO mice).
(§1) 8-week-old ICR male […] and C57BL/6J were purchased from Samtako (Gyeonggi-do, Seoul), and Olfr544 knockout mice from which exon 2 (161-428 bp) of an Olfr544 gene was removed using a CRISPR-Cas9 system were purchased from Macrogen (Seoul, Korea). All animal experiments were carried out in accordance with the experimental method (Protocol No. KUIACUC-2016-97) approved by the Animal Experiment Ethics Committee at Korea University. In the breeding environment, a 12-hour light cycle, a room temperature of 25 to 31° C., and relative humidity of […] were maintained. The mice were freely fed a 60% high-fat diet, and randomly divided into 4 groups (n=7, two groups for normal mice, and the other two groups for knockout (KO) mice). For exact Olfr544 activation, the mice were fasted overnight, and then intraperitoneally injected with an azelaic acid (100 mg/kg of body weight). For a control, the same amount of PBS was intraperitoneally injected. In an experiment for long-term administration of an azelaic acid, the azelaic acid was orally administered at a dose of 100 mg/kg of body weight. During the last week of the experimental period (6 weeks), the mice fasted for 16 hours were anesthetized and sacrificed. The collected muscle tissue was put into a freezing tube, immediately put into liquid nitrogen, and then stored at −80° C.

Olfr544 [1] = assay: mtDNA and mitochondrial density in Scr siRNA normal and Olfr544 knockdown C2C12 cells; type: cell-based, murine
Procedure: (§2) The differentiated skeletal muscle cells, C2C12 cells, were transfected with 200 pmol of scramble (control) or Olfr544 siRNA duplex (Santa Cruz, USA) using the Lipofectamine 2000 reagent (Invitrogen, USA) for 6 hours. Subsequently, another transfection was performed for 10 to 12 hours. The transfected cells were used for RNA or protein extraction.
(§3) The differentiated C2C12 cells were treated with azelaic acid, treated with 300 μL of a lysis buffer (20 mM EDTA, 100 mM Tris, 200 mM NaCl, 0.2% Triton X-100, 100 μg/mL) per well, and cultured at 37° C. for 90 minutes, and the extracted supernatant was treated with the same amount of isopropanol and 25 μL of a 4M NaCl solution. After storage at −20° C. overnight, distilled water (D.W.) was added to a pellet obtained by centrifugation (14,000 rpm, RT, 20 min), thereby extracting mtDNA. Afterward, 2 μl of DNA, 10 μl of the SYBR green PCR master mix, 0.5 μL of each of a forward primer and a reverse primer having a concentration of 10 pmol, and 6.6 μL of sterile distilled water were mixed, and qPCR was performed using the Thunderbird TMSYBR® qPCR Mix reagent (Takara Bio Inc., Japan). A gene expression level was analyzed using the iQ5 Cycler System (Bio-Rad, USA).
The change in mitochondrial DNA content and abundance were determined using MitoTracker. Olfr544 siRNA-transfected cells were treated with an azelaic acid at a concentration of 50 μM for 24 hours, and then washed with PBS. Afterward, a medium containing 200 nM of the MitoTracker green probe was added to the cells, and the cells were cultured for 30 minutes. The mitochondrial density was measured by quantifying wavelengths of a part binding to the tracker, which absorbs a wavelength at 490 nm and emits a wavelength at 516 nm, using SpectraMax. The images were obtained by the Zeiss LSM700 confocal microscope, and then analyzed using the Zeiss LSM700 version 3.2 software (Carl Zeiss, Germany)

[2] = tested on: muscle tissue of HFD-induced obese mice; assay: Oral administration for 6 weeks to HFD-induced obese normal and Olfr544 knockout mice, muscle tissue qPCR and mtDNA; type: in vivo, mouse; conditions: oral 100 mg/kg
Procedure: as §1
cDNA was synthesized using RNA extracted by adding the RNAiso plus reagent to murine muscle cells. Subsequently, the synthesized cDNA was subjected to qPCR using the Thunderbird TMSYBR® qPCR Mix reagent (Takara Bio Inc., Japan). A gene expression level was analyzed using the iQ5 Cycler System (Bio-Rad, USA).
as §3, with “Murine muscle” for “The differentiated C2C12”, “with” for “with azelaic acid, treated with 300 μL of”, “μg/mL),” for “μg/mL) per well,”

Olfr544 [3] = assay: Immunoblotting of pCREB, pERK1/2 and LC3II/LC3I in normal and Olfr544 knockdown C2C12 cells; type: cell-based, murine
Procedure: The differentiated skeletal muscle cells, C2C12 cells, were transfected with 200 pmol of scramble (control) or Olfr544 siRNA (Santa Cruz, USA) using the Lipofectamine 2000 reagent (Invitrogen, USA) for 6 hours. Subsequently, one more transfection was performed for 10 to 12 hours. After 24 hours, the transfected cells were treated with an azelaic acid and used for protein extraction.
Protein extraction was performed using an RIPA buffer (10 mM Tris-HCl, pH 7.5, 1% NP-40, 0.1% sodium deoxycholate, 0.1% SDS, 150 mM NaCl, and 1 mM EDTA), a Halt™ protease and a phosphatase inhibitor reagent (Thermo, USA). As primary antibodies, anti-CREB (1:250), anti-p-CREB (Ser133; 1:500), anti-β-actin (1:1000), anti-α-tubulin (1:1000), anti-ERK1/2 (1:500), anti-p-ERK1/2 (Thr53,54, 1:500), and anti-PGC-1α (1:500; Santa Cruz Biotechnology, Santa Cruz, USA) were used. In addition, anti-LC3B (1:500) was purchased from Novus Biologicals (Novus Biologicals, USA). The resulting immunoblotting image was analyzed using the ChemiDoc™ touch imaging system and Image Lab 5.2 software (Bio-Rad, PA, USA).

PGC-1α = PGC-1α gene and protein expression in differentiated C2C12 cells (qPCR, immunoblotting); type: cell-based, murine; conditions: 50 μM, 24 hours, compared to DMSO control
Procedure: (§4) Murine skeletal muscle cells, C2C12 cells, were purchased from the Korean Cell Line Bank. The cells were cultured using a Dulbecco's modified Eagle's medium (DMEM) supplemented with 20% fetal bovine serum (FBS; HyClone, USA) and 1% antibiotics (penicillin/streptomycin). When the cells reached 50% confluency (the degree of proliferation) under 5% CO2 (v/v) at 37° C., the cells were subcultured and maintained.
(§5) To differentiate the cells, the medium was replaced with DMEM containing 2% horse serum (HyClone), and after 7 days of differentiation, the cells were used in the experiment.
C2C12 cells differentiated for 7 days as described in Example 2-1 were treated with 12.5, 25 or 50 μM of an azelaic acid. […]
qPCR was performed to synthesize cDNA using RNA extracted from cells grown in a culture medium and then treated with 300 μL of the RNAiso plus reagent per well. […] A gene expression level was analyzed using the iQ5 Cycler System (Bio-Rad, USA).
Protein extraction was performed using an RIPA buffer (10 mM Tris-HCl, pH 7.5, 1% NP-40, 0.1% sodium deoxycholate, 0.1% SDS, 150 mM NaCl, and 1 mM EDTA), a Halt™ protease and a phosphatase inhibitor reagent (Thermo, USA). […] The resulting immunoblotting image was analyzed using the ChemiDoc™ touch imaging system and Image Lab 5.2 software (Bio-Rad, PA, USA).

C2C12 cells = assay: mtDNA level and mitochondrial density (MitoTracker) in differentiated C2C12 cells; type: cell-based, murine
Procedure: as §4, §5
C2C12 cells differentiated for 7 days as described in Example 2-1 were treated with 12.5, 25 or 50 μM of an azelaic acid. After 24 hours, RNA and proteins were extracted according to the following method, and used in the experiment. For a control, instead of an azelaic acid, the same amount of DMSO was treated.
After treatment with azelaic acid, the change in mitochondrial density was detected using MitoTracker. C2C12 cells were treated with an azelaic acid for 24 hours, and then washed with PBS. Subsequently, a medium containing […] of MitoTracker, i.e., a green probe, was added thereto, and the cells were cultured for 30 minutes. The mitochondrial density was measured by quantifying wavelengths of a part binding to the tracker, which absorbs a wavelength at 490 nm and emits a wavelength at 516 nm, using SpectraMax. Image analysis was performed using a confocal microscope and Zeiss LSM700 version 3.2 software (Carl Zeiss, Germany).
as §3, with “Afterward, 2 μl of DNA, 10 μl of the SYBR green PCR master mix, 0.5 μL of each of a forward primer and a reverse primer having a concentration of 10 pmol, and 6.6 μL of sterile distilled water were mixed, and qPCR was performed using the Thunderbird TMSYBR® qPCR Mix reagent (Takara Bio Inc., Japan).” left out

Olfr544 [4] = assay: PGC-1α expression in Scr siRNA normal and Olfr544 knockdown C2C12 cells; type: cell-based, murine; conditions: 50 μM
Procedure: as §2
qPCR was performed to synthesize cDNA using RNA extracted from cells grown in a culture medium and then treated with 300 μL of the RNAiso plus reagent per well. Subsequently, the synthesized cDNA was subjected to qPCR using the Thunderbird TMSYBR® qPCR Mix reagent (Takara Bio Inc., Japan). A gene expression level was analyzed using the iQ5 Cycler System (Bio-Rad, USA).
Protein extraction was performed using an RIPA buffer (10 mM Tris-HCl, pH 7.5, 1% NP-40, 0.1% sodium deoxycholate, 0.1% SDS, 150 mM NaCl, and 1 mM EDTA), a Halt™ protease and a phosphatase inhibitor reagent (Thermo, USA). As primary antibodies, anti-α-tubulin (1:1000) and anti-PGC-1α (1:500; Santa Cruz Biotechnology, Santa Cruz, USA) were used. The resulting immunoblotting image was analyzed using the ChemiDoc™ touch imaging system and Image Lab 5.2 software (Bio-Rad, PA, USA).

[5] = normal mice, 30 minutes after injection
[6] = normal mice, 120 minutes after injection
[7] = Olfr544 knockdown C2C12 cells, 50 μM, 24 hours
[8] = Scr siRNA-transfected normal C2C12 cells

## O=C(O)CCCCCCCC(=O)O [azelaic acid, nonanedioic acid]
Hepa1c1c-7 cells
  toxicity (cell viability, MTT assay): toxicity was not observed at any concentration
Muscle tissue of mice; Olfr544 knockout mice
  LC3II/LC3I protein expression in muscle: no change
  pERK/ERK protein expression in muscle: no change
Muscle tissue of mice; [5]
  LC3II/LC3I protein expression increase in muscle: 1.5 fold
  pERK/ERK protein expression increase in muscle: 2.5 fold
Muscle tissue of mice; [6]
  LC3II/LC3I protein expression in muscle: not changed
  pERK/ERK protein expression increase in muscle: 2.8 fold
Olfr544 [1]; C2C12 normal cells, azelaic acid (50 µM)
  mitochondrial density (quantification): enrichment of mitochondria
Olfr544 [1]; [7]
  mitochondrial density change: no changes
  mtDNA change: no changes
Olfr544 [1]; azelaic acid-treated normal C2C12 cells, 50 μM, 24 hours
  mtDNA increase: about 1.6 fold
[2]; Olfr544 knockout HFD mice
  PGC-1α mRNA expression in muscle: no changes
  Tfa gene expression in muscle: no change
  mt DNAs in muscle: no change
[2]; normal HFD mice
  Tfa gene expression increase in muscle: about 3.3 fold
[2]; normal HFD mice, compared to control group
  PGC-1α mRNA expression increase in muscle: about 1.9 fold
[2]; normal HFD mice, compared to non-administered mice
  mt DNAs in muscle: increased
Olfr544 [3]; Olfr544 knockdown C2C12 cells
  LC3II/LC3I protein expression: this effect disappeared
  pCREB expression change: no change
Olfr544 [3]; normal (Scr siRNA) C2C12 cells
  pCREB expression increase: about 2 fold
Olfr544 [3]; normal C2C12 cells, compared to the control group
  LC3II/LC3I protein expression increase: about 3 fold
Olfr544 [3]; skeletal muscle cells (C2C12)
  phosphorylated ERK1/2 protein expression increase: 1.5 fold
PGC-1α
  PGC-1α gene expression: increased
  PGC-1α protein expression: increased
C2C12 cells; 50 μM, 24 hours
  mitochondrial density (MitoTracker quantification): significantly increased
  mtDNA level, increase over control: about 2.5 fold
C2C12 cells; treated group compared to control group
  mitochondrial density, MitoTracker images under confocal fluorescence microscopy: substantial increases
Olfr544 [4]; Olfr544 knockdown C2C12 cells
  PGC-1α mRNA level: this effect is not shown
  PGC-1α protein level: this effect is not shown
Olfr544 [4]; [8]
  PGC-1α mRNA level: significantly increases
  PGC-1α protein level: significantly increases
